From patent publication US4891374A, “Imidazo- and triazolothiadiazines” (Hoechst Aktiengesellschaft, priority 1987, dated 1990) come the findings set out here.

Each structure is given as a SMILES string. Counter-ions that a name gives are not always drawn.

Data set [1] relates to Adjuvant arthritis. In words: Adjuvant arthritis (Pearson): reduction in increase in paw volume. Conditions: 50 mg/kg p.o. once daily day 1 to day 5; reduction in increase in paw volume vs control. The data set is classed as in vivo, male rats of the Wistar-Lewis strain. Here is the method:
The investigations were carried out using the method of Pearson (Arthrit. Rheum. 2 (1959), p. 44). The experimental animals used were male rats of the Wistar-Lewis strain having a body weight between 130 and 200 g. Compounds to be tested were administered orally (p.o.) once daily from day 1 to day 5 of the experiment in doses of 50 mg per kg of body weight. The animals in a control group were given only the vehicle. Each preparation group and the control group contained 8 animals. The criterion used to determine the action was the percentage reduction in the increase in paw volume compared to that of the untreated control group.

Data set [2] is described as follows: in vivo. The conditions noted are these: rat, po. Here is the method:
The investigation was in each case carried out on 10 male Sprague-Dawley rats whose gastric mucous membrane had been sensitized by hunger stress. The body weight of the animals was between 200 and 300 g. While allowing free access to the drinking water, the feed was withdrawn 48 hours before administration of the test preparations until sacrifice of the animals. The rats were sacrificed 24 hours after oral administration of the substance, and the stomachs were removed, cleaned under running water and inspected for mucous membrane lesions. All macroscopically visible lesions were regarded as ulcers. The number of animals having ulcers was determined per dose, and this figure was used to calculate, by the method of Litchfield and Wilcoxon (J. Pharmacol. Exp. Ther. 96 (1949), p. 99), the UD50 values, ie. the doses at which lesions were caused in 50% of the animals.

Data set [3] can be described thus: in vivo. The conditions noted are these: mouse, ip. As for the experimental part: The LD50 values were determined by standard methods from the mortality occurring within 7 days in NMRI (Naval Medical Research Institute) mice (6 animals per dose) after a single intraperitoneal (i.p.) administration.
For data set [4], the system named is lymphocytes. In words: Inhibition of immunopathological processes: adjuvant arthritis, immune activity of lymphocytes towards mitogens. Format: in vivo, rat.
Data set [5] relates to lymphocytes from the spleen. In words: Inhibition of immunopathological processes: type II collagen-induced arthritis, immune activity of spleen lymphocytes towards mitogens. Format: in vivo, male Wistar rats. The conditions noted are these: 20-day treatment phase. An excerpt:
It is generally accepted today that the advanced course of inflammatory rheumatic disorders is caused mainly by disfunctions in the immune system and that causal therapy can only succeed using medicaments which are capable of interrupting these immunopathological processes.
In this experiment, arthritis was induced in male Wistar rats by means of type II collagen, which could be obtained by standard methods of Miller and Rhodes (Meth. Enzymol. 82 (1982), p. 33) from the nasal septum of the calf and, mixed with Freund's incomplete adjuvant, was injected intradermally into the animals. This immunization procedure was repeated 7 days later. 20 days after the initial immunization, the sick rats were divided into groups each containing 7 animals, which, in the subsequent 20-day treatment phase, received the respective test substance or the pure vehicle (control group) once daily orally.
On day 41 of the experiment, ie. one day after the final administration of substance, lymphocytes were obtained from the spleen of the experimental animals and their immune activity towards mitogens was investigated, since the immune status of lymphocytes is also sensitively impaired in this model.

Data set [6] relates to Adriamycin (doxorubicin) induced inflammation. In words: Adriamycin-induced inflammation (paw volume). The data set is classed as in vivo, male Sprague-Dawley rats. The conditions noted are these: for protective effect against Adriamycin-induced tissue destruction: orally once daily on 4 successive days. An excerpt: According to current opinion, aggressive oxygen radicals, which are formed to excess during the chronic inflammation process and, as highly toxic inflammation mediators themselves, perpetually maintain the destruction of connective tissue which proceeds via irreversible lipid peroxidation of the cell membranes, participate prominently in the progressive course, caused by a number of factors, of rheumatoid arthritis and other inflammatory disorders. As a consequence, pharmaceuticals having an antioxidative action and having the capability to deactivate these extremely cytotoxic oxygen radicals should allow specific intervention in the chronic course of the inflammation. A suitable animal model for this type of tissue destruction caused by oxygen radicals is Adriamycin (doxorubicin) induced inflammation in the rat. The investigations were carried out using the method of D. M. Siegel et al. (Inflammation 4 (1980), p. 233) on male Sprague-Dawley rats having a body weight between 200 and 230 g in groups each containing 7 animals, which received 0.1 mg of Adriamycin, dissolved in 0.1 ml of 0.9% strength sodium chloride solution, by means of subcutaneous injection into the left rear paw. The increase in paw volume was determined 72 hours later by plethysmographic measurement as a measure of the degree of inflammation. The test preparations were administered orally in 1% strength aqueous carboxymethylcellulose suspension once daily on 4 successive days, starting with the day of Adriamycin injection.

Data set [7] deals with microsomal lipid peroxidation. The experiment in a line: In-vitro inhibition of lipid peroxidation (thiobarbituric acid test), microsomes. Conditions: rat liver microsomes. The data set is classed as biochemical. An excerpt: (§1) Further convincing evidence of the pronounced protective action of the compounds according to the invention against aggressive oxygen radicals is provided by the thiobarbituric acid test of A. Ottolenghi (Arch. Biochem. Biophys. 79 (1959) pp. 355-363). Using this in-vitro method, the influence on microsomal and mitochondrial lipid peroxidation by antioxidatively active preparations can be determined from the malonodialdehyde produced on oxidative degradation of membrane-bound, polyunsaturated fatty acids.
(§2) Here too, the compounds of the formula I exerted a strong inhibitory action.

In data set [8] the test system is mitochondrial lipid peroxidation. The experiment in a line: In-vitro inhibition of lipid peroxidation (thiobarbituric acid test), mitochondria. The data set is classed as biochemical. Conditions: rat liver mitochondria.
From the text: as §1, §2

For data set [9], the system named is 5-lipoxygenase. The experiment in a line: Inhibition of 5-lipoxygenase in isolated polymorphonuclear granulocytes (LTB4 and 5-HETE formation). The data set is classed as cell-based, human. Conditions: 10^-5 to 10^-6 mol/l; pre-incubation 15 minutes; calcium ionophor A 23 187-stimulated; 15 minutes at 37° C. As for the experimental part: The inhibitory action of the compounds according to the invention on 5-lipoxygenase-catalyzed degradation of arachidonic acid was determined, as usual, in in-vitro experiments on isolated polymorphonuclear human granulocytes. To this purpose, cells stimulated by calcium ionophor A 23 187 (Calbiochem GmbH, Frankfurt/Main, FRG, Biochemical and Immunochemical Catalog 1985, p. 284) were incubated with ^14 C-labeled arachidonic acid, and the major radioactive degradation products of arachidonic acid formed after 15 minutes at 37° C. by biotransformation, 5-hydroxyeicosatetraenoic acid (5-HETE) and leucotriene B4 (LTB4), which has a particularly strong pro-inflammatory action, were determined quantitatively with the aid of a radio monitor after separation by high-pressure liquid chromatography (HPLC).

As for `CC(C)(C)c1cc(C2=NN3CCN=C3SC2)cc(C(C)(C)C)c1O` [Example 1, 3-(3,5-Di-tert.butyl-4-hydroxyphenyl)-6,7-dihydro-2H-imidazo[2,1-b][1,3,4]thiadiazine hydrochloride], in data set [1], the “Adjuvant Arthritis (% inhibition at 50 mg/kg p.o.)” value was 62%. Besides, the TD50 at 24 h in [2] stood at 400 mg/kg. This molecule gave an LD50 at 168 h in data set [3] of more than 1200 mg/kg. Besides, the “normalization of the immunoreactivity” value in data set [4] (oral administration of 20 mg/kg) was “substantial normalization of the immunoreactivity”. In [5] (25 mg/kg p.o. once daily), the “immune function of B lymphocytes” value is listed as “completely normalized” and the “immune function of T lymphocytes” value is “completely normalized”. The “inhibition of Adriamycin-induced tissue destruction” value in data set [6] (80 mg/kg p.o. once daily on 4 successive days, paw volume 72 hours after Adriamycin) is 55%. In data set [6], the “protective effect against Adriamycin-induced tissue destruction” value is “dose-dependent protective effect”. In [7], this molecule gave an IC50 of 0.5 µM. In addition, the IC50 in [8] was 4 µM. In data set [9], the “inhibition of formation of 5-HETE” value is “significantly inhibit” and the “inhibition of formation of LTB4” value is “significantly inhibit”.
In the case of `CC1SC2=NCCN2N=C1c1cc(C(C)(C)C)c(O)c(C(C)(C)C)c1` (stereo not shown) [Example 2, 3-(3,5-Di-tert.butyl-4-hydroxyphenyl)-2-methyl-6,7-dihydro-2H-imidazo[2,1-b][1,3,4]thiadiazine hydrochloride], in data set [1], the “Adjuvant Arthritis (% inhibition at 50 mg/kg p.o.)” value is reported as 63%. This molecule also showed a TD50 at 24 h in [2] of 200 mg/kg. This molecule returned a 50% lethal dose (LD50) at 168 h in data set [3] of more than 1200 mg/kg.
The like results for `CC(C)(C)c1cc(C2=Nn3ccnc3SC2)cc(C(C)(C)C)c1O` [Example 4, 3-(3,5-Di-tert.butyl-4-hydroxyphenyl)-2H-imidazo[2,1-b][1,3,4]thiadiazine hydrochloride] were, in that order, 69%, more than 200 mg/kg and 300 to 600 mg/kg.
The corresponding values for `CC1Sc2nncn2N=C1c1cc(C(C)(C)C)c(O)c(C(C)(C)C)c1` (stereo not shown) [Example 5, 3-(3,5-Di-tert.butyl-4-hydroxyphenyl)-2-methyl-2H-s-triazolo[3,4-b][1,3,4]thiadiazine] are 56%, more than 200 mg/kg and more than 1200 mg/kg.
Regarding `CC(C)(C)c1cc(C2=NN3CC(=O)N=C3SC2)cc(C(C)(C)C)c1O` [Example 6, 3-(3,5-Di-tert.butyl-4-hydroxyphenyl)-7-oxo-6,7-dihydro-2H-imidazo[2,1-b][1,3,4]-thiadiazine hydrobromide], in data set [1], the “Adjuvant Arthritis (% inhibition at 50 mg/kg p.o.)” value was found to be 73%. Besides, the TD50 at 24 h in data set [2] was more than 200 mg/kg. In addition, in data set [3], the LD50 at 168 h lay within 300 to 600 mg/kg.
On to `CC(C)(C)c1cc(C2=NN3C(=O)CN=C3SC2)cc(C(C)(C)C)c1O` [Example 7, 3-(3,5-Di-tert.butyl-4-hydroxyphenyl)-6-oxo-6,7-dihydro-2H-imidazo[2,1-b][1,3,4]thiadiazine hydrobromide], for which the “Adjuvant Arthritis (% inhibition at 50 mg/kg p.o.)” value in data set [1] came to 59%. For the same molecule, the TD50 at 24 h in data set [2] was more than 200 mg/kg. This molecule also returned an LD50 at 168 h in data set [3] of 300 to 600 mg/kg.
With `COc1ccc2cc(C(C)C(=O)O)ccc2c1` (stereo not shown) [naproxen, 2-(6-methoxy2-naphthyl)-propionic acid, reference compound], the “Adjuvant Arthritis (% inhibition at 50 mg/kg p.o.)” value in data set [1] amounted to 55%. In data set [4] (doses up to 25 mg/kg), the “stimulating action on suppressed immunological response” value was “ineffective”. Moreover, the “curative effects on the greatly weakened immune system” value in data set [5] (once daily orally) was “no action”. Besides, the “protective effect against Adriamycin-induced tissue destruction” value in [6] is given as “ineffective”.

For orientation: LD50 means the dose expected to kill half of the subjects tested. A high value points to a less toxic substance. The IC50 is the concentration that gives 50% inhibition. A high value points to a need for much substance.
